“Also recorded” adds a separate entry of the source.
What was measured:
[1] = tested on: human tumor Tregs (TI-Tregs); assay: viability of sorted tumor Tregs vs peripheral Tregs at peripheral-Treg EC20 dose; assay type: cell-based; conditions: at peripheral-Treg EC20 (IC20) dose; TI-Tregs from clear cell renal carcinoma expanded ex vivo
Procedure: To reduce study complexity and cost, the inventors first assessed the effect of a library of 1,554 FDA-approved and investigational compounds on human-derived P-Treg viability at a single, relatively large concentration (5 μM). For this screen, human P-Tregs were flow sorted, expanded ex vivo, and drug treated in a 96-well plate format (FIG. 6A). The inventors then selected 195 compounds that inhibited P-Treg viability ≥60% (FIG. 6B). To further reduce the number of candidate drugs, the inventors then generated 10-point drug response curves to identify the 48 h EC20 concentration of the 195 compounds, then selected a repertoire of 86 compounds with the lowest EC20 for efficient perturbational profile analysis in a 96-well format, when considering inclusion of vehicle controls (DMSO). As previously reported (Bush et al., 2017; Douglass et al., 2020), the 48 h EC20 (maximum sublethal) concentration was selected to effectively assess the 24 h drug mechanism of action, while reducing confounding effects arising from activation of cell stress or death pathways. Finally, the EC20 concentration of each compound was then used to perturb TI-Tregs flow-sorted from a chemo-naïve human clear cell carcinoma specimen and expanded ex vivo, into 96-well plates, followed by RNA-seq profiling using the fully automated PLATE-Seq technology (Bush et al., 2017; Douglass et al., 2020). Viability, as well as perturbational RNA-seq profiles of TI-Tregs were collected (FIGS. 6C-D). […]

[2] = tested on: TI-Treg MR proteins (17-MR protein signature); assay: PLATE-Seq perturbational RNA-seq of TI-Tregs with VIPER / OncoTreat analysis; assay type: cell-based, human; conditions: for patient-by-patient inhibition of TI-Treg vs P-Treg MR activity (OncoTreat): individual TI- vs. P-Treg signatures of all 36 patients
Procedure: To reduce study complexity and cost, the inventors first assessed the effect of a library of 1,554 FDA-approved and investigational compounds on human-derived P-Treg viability at a single, relatively large concentration (5 μM). For this screen, human P-Tregs were flow sorted, expanded ex vivo, and drug treated in a 96-well plate format (FIG. 6A). The inventors then selected 195 compounds that inhibited P-Treg viability ≥60% (FIG. 6B). To further reduce the number of candidate drugs, the inventors then generated 10-point drug response curves to identify the 48 h EC20 concentration of the 195 compounds, then selected a repertoire of 86 compounds with the lowest EC20 for efficient perturbational profile analysis in a 96-well format, when considering inclusion of vehicle controls (DMSO). As previously reported (Bush et al., 2017; Douglass et al., 2020), the 48 h EC20 (maximum sublethal) concentration was selected to effectively assess the 24 h drug mechanism of action, while reducing confounding effects arising from activation of cell stress or death pathways. Finally, the EC20 concentration of each compound was then used to perturb TI-Tregs flow-sorted from a chemo-naïve human clear cell carcinoma specimen and expanded ex vivo, into 96-well plates, followed by RNA-seq profiling using the fully automated PLATE-Seq technology (Bush et al., 2017; Douglass et al., 2020). Viability, as well as perturbational RNA-seq profiles of TI-Tregs were collected (FIGS. 6C-D). By using the differential protein activity signature in drug- vs. vehicle control-treated TI-Tregs, we identified the compounds capable of inducing the most statistically significant inactivation of TI-Treg-specific MR proteins (OncoTreat algorithm (Alvarez et al., 2018). From this analysis, 32 compounds were nominated as statistically significant inhibitors of the 17-MR protein signature (FIG. 7B), seven of which preferentially depleted TI-Treg vs. P-Treg viability in vitro (FIGS. 6C-D), and which were also found to inhibit patient-by-patient TI-Treg vs P-Treg MRs across all tumor types and nearly all patients (FIG. 6E).
Wells of drug-treated Tregs were RNA-Sequenced and each normalized with viperSignature against the internal DMSO-control wells on the same PLATE. VIPER was run on the normalized gene expression using the T-cell ARACNe network inferred from sorted bulk-RNA-Sequencing clinical data. Drugs were ranked on their overall inversion across patients of the 17-gene Master Regulator signature previously identified and validated by CRISPR (FIG. 7B), as well as on their patient-by-patient inversion of Tumor-Treg vs Peripheral-Treg protein activity signature by OncoTreat (FIG. 6E).

[3] = tested on: MC38 syngeneic tumor model; assay: MC38 tumor growth and survival in immune-competent C57BL/6J mice; assay type: in vivo
Procedure: 10 C57BL/6J mice per treatment arm were implanted with subcutaneous MC38 tumor cells. Treatment was initiated after 12 days of initial tumor growth, at which point mice were monitored for tumor volume until exceeding 1000 mm^3 or ulceration exceeding a diameter of 5 mm. […] Floxuridine and triapine were IP daily from day 12-18 at 1 mg/kg and 5 mg/kg, respectively, also reflecting 1/10th the standard murine dose. Mice receiving anti-PD-1 were administered anti-PD-1 IP on days 12, 15, and 18.

MC38 tumors = assay: MC38 tumor growth and survival in immune-deficient NSG mice; assay type: in vivo
Procedure: To assess whether low-dose gemcitabine effects were immune-mediated, we performed parallel dose titrations in immune-competent C57BL/6J mice and severely immune-deficient NSG (NOD.Cg-Prkdc^scid Il2rg^tm1Wj1/SzJ) mice lacking both innate and adaptive immunity.
To test whether immune-dependent activity could be observed in this range of concentrations, we dosed cohorts of mice with 1-10 mg/kg gemcitabine, with an additional cohort of C57BL/6J mice receiving anti-PD-1 in combination.
To further assess the doses at which gemcitabine inhibits tumor growth and the immune-mediated effects of gemcitabine, the inventors performed parallel dose titrations of Gem in immune-competent C57BL/6J mice and immune-deficient NSG (NOD.Cg-Prkdc^scid Il2rg^tm1Wjl/SzJ) mice, administering doses ranging from 0.12 mg/kg up to 120 mg/kg as shown in FIGS. 4D-E. At least 5 mice were treated per treatment arm. Doses were administered IP on days 12, 15, and 18, and treatment response was assessed by and Kaplan-Meier test (FIG. 8E).

[4] = tested on: TRC3 cluster Tregs (enriched for TI-Treg MRs); assay: scRNA-seq of MC38 tumor- and spleen-derived Tregs after gemcitabine; assay type: in vivo, FoxP3Yfp-Cre mice; conditions: 24 hours after single 12 mg/kg dose

Row | SMILES | differential TI-Treg vs. P-Treg viability reduction (toxicity) [1] | patient-by-patient inhibition of TI-Treg vs P-Treg MR activity (OncoTreat) [2] | tumor growth inhibition ([3]; triapine 5 mg/kg IP daily day 12-18, alone or with anti-PD-1) | tumor growth inhibition ([3]; floxuridine 1 mg/kg IP daily day 12-18, alone or with anti-PD-1) | inhibition (down-regulation) of the 17-MR TI-Treg protein activity signature ([2]; TI-Tregs treated at EC20, 24 h, drug vs DMSO, VIPER protein activity) | efficacy in dose titration ([3]; between 12 mg/kg and 1.2 mg/kg, C57BL/6J) | dose range found to be immunogenic ([3]; dosed Q3D) | advantage in C57BL/6 vs NSG mice ([3]; gemcitabine 1.2 mg/kg, p=0.09) | survival C57BL/6J vs. NSG ([3]; gemcitabine 10 mg/kg, p=0.253) | tumor growth kinetics vs vehicle ([3]; gemcitabine 12 mg/kg IP days 12, 15, 18, late stage MC38, p=0.003) | survival vs vehicle ([3]; gemcitabine 12 mg/kg IP days 12, 15, 18, late stage MC38, p=0.006) | tumor growth relative to vehicle control ([3]; gemcitabine 120 mg/kg, C57BL/6J, p<0.001 by Cox regression) | difference between C57BL/6J and NSG strains ([3]; gemcitabine 120 mg/kg, p=0.19) | efficacy in dose titration (MC38 tumors; between 12 mg/kg and 1.2 mg/kg, NSG) | activity in NSG mice (MC38 tumors; gemcitabine 3 mg/kg, p=0.84) | tumor growth relative to vehicle control (MC38 tumors; gemcitabine 120 mg/kg, NSG, p<0.001 by Cox regression) | TRC1 occupancy [4] | change of TRC3 occupancy in spleen population ([4]; spleen) | TRC3 cluster frequency among TI-Tregs ([4]; tumor, vehicle 30.1%, p=1.51e-20)
1 | NC(=S)N/N=C/c1ncccc1N [triapine] | among the top 6 inducing the most significant differential TI- vs. P-Treg viability reduction | among the seven most significant TI-Treg MR activity inhibitors | gemcitabine was the only treatment found to significantly inhibit tumor growth |  |  |  |  |  |  |  |  |  |  |  |  |  |  |  | 
2 | O=c1[nH]c(=O)n([C@H]2C[C@H](O)[C@@H](CO)O2)cc1F [floxuridine] | among the top 6 inducing the most significant differential TI- vs. P-Treg viability reduction | among the seven most significant TI-Treg MR activity inhibitors |  | gemcitabine was the only treatment found to significantly inhibit tumor growth |  |  |  |  |  |  |  |  |  |  |  |  |  |  | 
3 | Nc1ccn([C@@H]2O[C@H](CO)[C@@H](O)C2(F)F)c(=O)n1 [gemcitabine] | preferential cytotoxic capacity against TI-Tregs; also recorded: preferentially toxic to TI-Tregs; also recorded: among the top 6 inducing the most significant differential TI- vs. P-Treg viability reduction | among the seven most significant TI-Treg MR activity inhibitors |  |  | inhibits transcriptional activity of TI-Treg MRs | efficacy was lost | 3 to 10 mg/kg | trending but non-significant advantage | trending survival advantage | significantly inhibit tumor growth; also recorded: significant reduction in growth kinetics | prolongation of survival | inhibited tumor growth | no significant difference | efficacy was lost | lack any activity | inhibited tumor growth | proportional increase | virtually no change | 14.9%

Source: patent US20240108644A1, “TUMOR IMMUNOTHERAPY” (The Trustees of Columbia University in the City of New York, priority 2021, published 2024)
